Test system: fully-duplexed (CAG)50●(CTG)50
Test: band-shift NA-DNA binding, fully-duplexed repeat
Parameters: species or system human
Details: NA 0.15-50 μM, 4% polyacrylamide gel
Excerpt: FIG. 2 are the results of experiments showing that NA binds to long CAG slip-outs. […] The (CAG)n DNA sequence (left) can fold into an hairpin structure involving mismatched A-A pair flanking C-G base pairs (middle). NA molecules can intercalate into the DNA helix, with the 2-amino-1,8-naphthyridine moiety (in red) hydrogen bonding to guanine and 8-azaquinolone moiety (in blue) hydrogen bonding to adenine. […] Long slip-outs extruded as a single slip-out from a fully base-paired backbone of (CTG)n●(CAG)n, as described (Pearson et al., 2002, Nuc. Acids Res., 30:4534-47). DNAs were mixed with increasing concentrations of NA (0.15 μM, 0.75 μM, 7.5 μM and 50 μM) and resolved on 4% polyacrylamide gels. All lanes are from the same gel, and they were separated for clarity. NA-DNA complexes are shown by brackets, free DNA is indicated by arrowheads. […] The relative migration was measured for the linear and the three slip-outs substrates as the ratio of the migration distance of each NA-DNA complex to the migration distance of the free DNA. The migration distance was measured from the well to a consistent center point of each band. […]

naphthyridine-azaquinolone
NA binding (band-shift): did not bind

Reference: patent US11672786B2, “Methods of treating diseases associated with repeat instability” (The Hospital for Sick Children, priority 2016, dated 2023)
